Measurements as given in patent publication US20240174618A1, “SUBSTITUTED (2-HETEROARYLOXYPHENYL)SULFONATES, SALTS THEREOF AND THEIR USE AS HERBICIDAL AGENTS” (Bayer Aktiengesellschaft, priority 2021, published 2024).

Assays:
Format in all cases: in vivo
[1] = tested on: Polygonum convolvulus (POLCO); experiment: C. Herbicidal pre-emergence efficacy, POLCO; details: scored after about 3 weeks
Description: Seeds of monocotyledonous and dicotyledonous weed plants and crop plants were placed in plastic or organic planting pots and covered with soil. The compounds of the invention, formulated in the form of wettable powders (WP) or as emulsion concentrates (EC), were then applied to the surface of the covering soil as aqueous suspension or emulsion with addition of 0.5% additive at a water application rate equivalent to 600 l/ha (converted). After the treatment, the pots were placed in a greenhouse and kept under good growth conditions for the test plants. After about 3 weeks, the efficacy of the preparations was scored visually in comparison with untreated controls as percentages. For example, • 100% efficacy=plants have died, • 0% efficacy=like untreated control plants.
Tables C1a to C14b below show the effects of selected compounds of the general formula (I) according to table 1 on various harmful plants at an application rate corresponding to 320 g/ha or less, which were obtained by the experimental procedure mentioned above.

[2] = tested on: Amaranthus retroflexus (AMARE); experiment: C. Herbicidal pre-emergence efficacy, AMARE; details: scored after about 3 weeks
How it was run: (§1)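 Pre-emergence test: formulated compounds sprayed as aqueous suspension or emulsion with 0.5% additive at 600 l/ha onto soil covering sown seeds, at rates corresponding to 320 g/ha or less. After about 3 weeks in greenhouse, efficacy scored visually as percent versus untreated controls (100% = plants dead).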

[3] = tested on: Abutilon theophrasti (ABUTH); experiment: E. Herbicidal post-emergence efficacy, ABUTH
How it was run: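 Greenhouse post-emergence spray, one-leaf stage (2–3 wk after sowing, sandy loam); WP/EC formulation, aqueous + 0.5% additive, 600 l/ha water; rates 320 g/ha or less. Visual rating ~3 wk later vs untreated; 0% = control-like, 100% = dead.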

[4] = tested on: Setaria viridis (SETVI); experiment: A. Herbicidal pre-emergence efficacy, SETVI
How it was run: (§2)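 Pre-emergence soil-surface spray in sandy loam pots, WP/EC in water plus 0.5% additive, 600 L/ha. Visual % damage rating after about 3 weeks in greenhouse vs. untreated; 0% = control-like, 100% = dead plants. Rates up to 1280 g/ha.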

[5] = tested on: Stellaria media (STEME); experiment: A. Herbicidal pre-emergence efficacy, STEME
How it was run: as §2

[6] = tested on: Amaranthus retroflexus (AMARE); experiment: B. Herbicidal post-emergence efficacy, AMARE
How it was run: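 Post-emergence greenhouse test: one-leaf-stage plants, compound (WP/EC, +0.5% additive, 600 L/ha water, ≤1280 g/ha) applied to green parts; % efficacy scored visually vs untreated after ~3 wk; 100% = plants died.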

[7] = tested on: Digitaria sanguinalis (DIGSA); experiment: C. Herbicidal pre-emergence efficacy, DIGSA; details: scored after about 3 weeks
How it was run: as §1

Structure (SMILES) | Pre-emergence efficacy against POLCO ([1]; 80 g/ha) [%] | Pre-emergence efficacy against POLCO ([1]; 320 g/ha) [%] | Pre-emergence efficacy against AMARE ([2]; 80 g/ha) [%] | Pre-emergence efficacy against AMARE ([2]; 320 g/ha) [%] | Post-emergence efficacy against ABUTH in % ([3]; application rate 320 g/ha) [%] | Pre-emergence efficacy against SETVI ([4]; dosage 80 g/ha) [%] | Pre-emergence efficacy against SETVI ([4]; dosage 320 g/ha) [%] | Pre-emergence efficacy against SETVI ([4]; dosage 1280 g/ha) [%] | Pre-emergence efficacy against STEME ([5]; dosage 80 g/ha) [%] | Pre-emergence efficacy against STEME ([5]; dosage 320 g/ha) [%] | Pre-emergence efficacy against STEME ([5]; dosage 1280 g/ha) [%] | Post-emergence efficacy against AMARE ([6]; 80 g/ha) [%] | Post-emergence efficacy against AMARE ([6]; 320 g/ha) [%] | Post-emergence efficacy against AMARE ([6]; 1280 g/ha) [%] | Post-emergence efficacy against ABUTH in % ([3]; application rate 80 g/ha) [%] | Pre-emergence efficacy against DIGSA ([7]; 80 g/ha) [%] | Pre-emergence efficacy against DIGSA ([7]; 320 g/ha) [%]
O=S(=O)(CCCCl)Oc1ccccc1Oc1ncc(F)cn1 [Example I-5] | 90 | 100 | 100 | 100 | 90 | 100 | 100 | 100 | 90 | 100 | 100 | 100 | 100 | 100 |  |  | 
CCCCS(=O)(=O)Oc1ccccc1Oc1ncc(Cl)cn1 [Example I-6] | 90 | 90 | 100 | 100 | 90 | 90 | 90 | 100 | 100 | 100 | 100 | 90 | 100 | 100 | 80 | 100 | 100
CC(C)CS(=O)(=O)Oc1ccccc1Oc1ncc(Cl)cn1 [Example I-7, [2-(5-Chloropyrimidin-2-yl)oxyphenyl] 2-methylpropane-1-sulfonate] | 90 | 100 | 100 | 100 | 100 | 100 | 100 | 100 | 90 | 90 | 100 |  | 90 | 90 |  | 100 | 100
O=S(=O)(CCCCl)Oc1c(F)cccc1Oc1ncc(Cl)cn1 [Example I-14] | 90 | 100 | 100 | 100 | 90 | 100 | 100 | 100 | 100 | 100 | 100 | 100 | 100 | 100 |  |  | 
CCS(=O)(=O)Oc1ccccc1Oc1ncc(Cl)cn1 [Example I-16] |  |  |  |  |  |  | 100 | 100 |  | 100 | 100 | 100 | 100 | 100 |  |  | 
Cc1cccc(Oc2ncc(Cl)cn2)c1OS(=O)(=O)CCCC(F)(F)F [Example I-28, 2-[(5-Chloropyrimidin-2-yl)oxy]-6-methylphenyl 4,4,4-trifluorobutane-1-sulfonate] |  |  |  |  |  | 100 | 100 | 100 | 90 | 100 | 100 |  | 90 | 100 |  |  | 
Cc1cccc(Oc2ncc(Cl)cn2)c1OS(=O)(=O)CCC(F)(F)F [Example I-29] |  |  |  |  |  |  | 100 | 100 | 90 | 100 | 100 | 90 | 100 | 100 |  |  | 
O=S(=O)(CCCC(F)(F)F)Oc1c(Br)cccc1Oc1ncc(Cl)cn1 [Example I-30] |  |  |  |  |  | 90 | 100 | 100 | 100 | 100 | 100 | 100 | 100 | 100 |  |  | 
O=S(=O)(CCC(F)(F)F)Oc1c(Br)cccc1Oc1ncc(Cl)cn1 [Example I-31] |  |  |  |  |  |  | 100 | 100 | 90 | 100 | 100 | 100 | 100 | 100 |  |  | 
O=S(=O)(CCCC(F)(F)F)Oc1c(F)cccc1Oc1ncc(F)cn1 [Example I-42] | 100 | 100 | 100 | 100 | 100 | 100 | 100 | 100 | 100 | 100 | 100 |  |  |  | 80 | 100 | 100
Cc1cccc(Oc2ncc(F)cn2)c1OS(=O)(=O)CCCC(F)(F)F [Example I-46] | 90 | 100 | 80 | 100 | 90 | 90 | 100 | 100 | 90 | 100 | 100 |  |  |  |  | 100 | 100
O=S(=O)(CCC(F)(F)F)Oc1c(F)cccc1Oc1ncc(F)cn1 [Example I-47] | 100 | 100 | 100 | 100 | 100 | 100 | 100 | 100 | 100 | 100 | 100 |  |  |  |  | 100 | 100
